Test results published in patent publication US6821516B1, “Macrophages, process for preparing the same and their use as active substances of pharmaceutical compositions” (I.D.M. Immuno-Designed Molecules, priority 1993, dated 2004).

System: U937 tumor cells
Test: In vitro antitumoral assay: inhibition of 3H-thymidine incorporation by U937 tumor cells, macrophage/U937 ratio 1/1
Assay type: cell-based, human
Settings: mean and standard error of 8 preparations
Procedure: The “cytotoxic activity” corresponds to the one measured as the percentage of inhibition of 3-H thymidine incorporation by target tumoral cells, particularly U937 cells, and a test for this measure is hereafter given:
Differentiated macrophages were seeded into 96-well flat microtiter plates at 10^4 macrophages/well in 0.2 ml. After 2 h incubation at 37° C. in 5% CO2 humidified atmosphere, the medium was removed and replaced by IMDM+5% hu AB serum containing or not 250 U/ml of rhu IFNγ; plates were further incubated overnight. After washing, 10^4 U937 tumor cells in 0.2 ml fresh medium (IMDM+10% FCS) were added to each well. After 24 h contact, 0.1 μCi of tritiated thymidine was added to each well for a further 24 h incubation.
The cells were collected and the determination of incorporated radioactivity on the fiber glass filters was carried out by β counting. The percentage inhibition of thymidine incorporation by tumor cells could be calculated according to the formula: [formula]
The cytotoxic activity is determined with U937 cells, the ratio between macrophages and U937 being of 1/1. […]
The cells were collected and the determination of incorporated radioactivity on the fiber glass filters was carried out by β counting. The % inhibition of thymidine incorporation by tumor cells was calculated according the formula: [formula]

For +GM-CSF, the “cytotoxic activity +IFN-γ: % inhibition of 3H-thymidine incorporation by U937 cells” value (after activation with 250 U/ml IFN-γ) was 76 +/− 5% and the “cytotoxic activity −IFN-γ: % inhibition of 3H-thymidine incorporation by U937 cells” value (without IFN-γ activation (spontaneous)) was 44 +/− 5%.
